Measurements published in patent publication US7939558B2, “Compounds having activity in increasing ion transport by mutant-CFTR and uses thereof” (The Regents of the University of California, priority 2004, dated 2011).

Columns and labels:
[1] = target: T1, G1349D-CFTR (Homo sapiens, UniProt P13569, G1349D); assay: Short-circuit Cl− current in FRT cells expressing G1349D-CFTR; assay type: cell-based
T1 construct: expressed in transfected cells; host or cells: FRT cells
Procedure: Experiments were done after basolateral membrane permeabilization and in the presence of a transepithelial Cl^− gradient, so that short-circuit current represents apical membrane Cl^− current. […] Cells were plated on a permeable support to generate a polarized epithelium, cultured for 5-7 days, and then incubated at 27° C. for 24 hours. Transepithelial chloride current was measured in a modified Ussing chamber in the presence of a chloride gradient.
In contrast to the ΔF508 mutation, other cystic fibrosis mutations, which number >1000, have a relatively very low frequency. The fraction of CF mutations that cause a pure gating defect (class III mutants) is unknown but is likely to be substantial.

[2] = target: G551D-CFTR (Homo sapiens, UniProt P13569, G551D); assay: Short-circuit Cl− current in FRT cells expressing G551D-CFTR
[3] = after application of forskolin, versus forskolin alone

Sequence of G551D-CFTR (P13569 whole entry G551D): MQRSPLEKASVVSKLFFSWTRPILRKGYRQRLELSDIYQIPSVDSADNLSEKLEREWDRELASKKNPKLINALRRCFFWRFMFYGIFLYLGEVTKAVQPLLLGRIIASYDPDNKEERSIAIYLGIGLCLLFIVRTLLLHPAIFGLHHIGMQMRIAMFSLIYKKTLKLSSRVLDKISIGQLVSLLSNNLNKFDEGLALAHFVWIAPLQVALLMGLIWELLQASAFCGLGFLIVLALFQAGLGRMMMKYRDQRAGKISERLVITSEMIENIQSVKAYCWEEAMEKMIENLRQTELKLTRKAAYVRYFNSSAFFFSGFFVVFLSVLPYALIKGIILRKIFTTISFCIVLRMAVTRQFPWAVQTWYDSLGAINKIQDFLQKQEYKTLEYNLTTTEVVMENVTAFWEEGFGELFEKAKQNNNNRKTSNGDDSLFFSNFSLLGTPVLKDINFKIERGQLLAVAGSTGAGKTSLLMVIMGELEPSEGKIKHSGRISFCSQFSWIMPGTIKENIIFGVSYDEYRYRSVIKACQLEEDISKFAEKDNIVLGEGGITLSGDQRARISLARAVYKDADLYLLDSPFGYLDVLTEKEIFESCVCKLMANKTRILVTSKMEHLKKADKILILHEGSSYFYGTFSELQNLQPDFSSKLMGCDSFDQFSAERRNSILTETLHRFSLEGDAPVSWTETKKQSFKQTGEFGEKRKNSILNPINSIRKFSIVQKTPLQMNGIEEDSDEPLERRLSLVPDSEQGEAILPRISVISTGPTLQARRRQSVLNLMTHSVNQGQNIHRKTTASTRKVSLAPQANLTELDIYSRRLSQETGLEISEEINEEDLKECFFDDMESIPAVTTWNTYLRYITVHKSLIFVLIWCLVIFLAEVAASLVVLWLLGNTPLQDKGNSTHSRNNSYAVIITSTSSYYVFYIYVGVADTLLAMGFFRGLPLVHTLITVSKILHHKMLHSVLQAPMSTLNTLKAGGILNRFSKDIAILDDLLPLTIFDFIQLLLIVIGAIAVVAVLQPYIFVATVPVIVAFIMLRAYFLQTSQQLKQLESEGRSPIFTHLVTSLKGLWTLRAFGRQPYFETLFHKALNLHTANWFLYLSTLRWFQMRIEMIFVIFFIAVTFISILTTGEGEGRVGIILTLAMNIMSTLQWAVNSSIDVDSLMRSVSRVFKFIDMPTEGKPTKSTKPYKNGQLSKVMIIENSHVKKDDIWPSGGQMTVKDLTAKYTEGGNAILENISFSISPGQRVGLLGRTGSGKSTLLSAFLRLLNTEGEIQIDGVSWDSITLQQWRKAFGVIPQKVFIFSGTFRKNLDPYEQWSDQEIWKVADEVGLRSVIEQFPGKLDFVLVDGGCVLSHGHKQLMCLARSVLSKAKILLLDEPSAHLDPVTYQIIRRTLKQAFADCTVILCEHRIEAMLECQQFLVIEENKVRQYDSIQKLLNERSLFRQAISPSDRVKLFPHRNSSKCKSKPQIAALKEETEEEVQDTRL
T1 sequence (P13569 whole entry G1349D): as the sequence (P13569 whole entry G551D) above, with D551G, G1349D counted along it

With `CC(C)c1ccc(NC(=O)C(c2ccccc2)N(C)C(=O)Cc2c[nH]c3ccccc23)cc1` (centres unmarked) [Compound P-1, 2-[(2-1H-Indol-3-yl-acetyl)-methyl-amino]-N-(4-isopropyl-phenyl)-2-phenyl-acetamide] the “activating potency relative to genistein” value ([1]; G1349D-CFTR) was 50-100 times, the elevation in current [1, 3] was > 10 fold and the “Cl− current in G1349D-CFTR expressing cells” value ([1]; after maximal forskolin) was “large currents”. For the same compound, the EC50 ([1]; read-out: potency for activation of G1349D-CFTR) was ~40 nM, the Kd [2] was ~1000 nM and the “activating potency relative to genistein” value ([2]; G551D-CFTR) was 50-100 times. For the same compound, the elevation in current [2, 3] was > 10 fold and the “Cl− current in G551D-CFTR expressing cells” value ([2]; after maximal forskolin) was “large currents”.
